From patent US20220323406A1, “METHODS AND COMPOSITIONS FOR DIFFERENTIATING STEM CELLS” (Massachusetts Institute of Technology, priority 2019, published 2022)

What was measured:
ENR+CD organoids = experiment: Primary screen: ATP (CellTiter-Glo 3D, CTG) cell number/viability, 2.5-D 384-well ENR+CD organoids;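 also: compounds given at plating and again on day 3 over a 6-day differentiation from ENR+CV stem-cell-enriched precursors, ATP measured on day 6, plate median as control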
[1] = system: ENR+CD organoids (ISC to Paneth cell differentiation); experiment: Primary screen: CCh-stimulated lysozyme secretion LYZ.S, 2.5-D 384-well ENR+CD organoid differentiation; type: cell-based, mouse; conditions: primary screen
Excerpt: (§1) High-throughput screening.

[2] = system: ENR+CD organoids (ISC to Paneth cell differentiation); experiment: Primary screen: basal (non-stimulated) lysozyme secretion LYZ.NS, 2.5-D 384-well ENR+CD organoid differentiation; type: cell-based, mouse
Excerpt: as §1

[3] = primary screen, standard z score, dose 0.08 uM
[4] = primary screen, standard z score, dose 0.40 uM
[5] = primary screen, standard z score, dose 2.00 uM
[6] = primary screen, standard z score, dose 10.00 uM
[7] = primary screen, dose 0.08 uM, standard z score
[8] = primary screen, dose 0.40 uM, standard z score
[9] = primary screen, dose 2.00 uM, standard z score
[10] = primary screen, dose 10.00 uM, standard z score
[11] = primary screen; dose 0.08 uM; FC vs plate median
[12] = primary screen; dose 0.40 uM; FC vs plate median
[13] = primary screen; dose 2.00 uM; FC vs plate median
[14] = primary screen; dose 10.00 uM; FC vs plate median
[15] = primary screen, dose 0.08 uM, FC relative to plate median
[16] = primary screen, dose 0.40 uM, FC relative to plate median
[17] = primary screen, dose 2.00 uM, FC relative to plate median
[18] = primary screen, dose 10.00 uM, FC relative to plate median

| SMILES | Dose.FC.CTG (ENR+CD organoids; primary screen, dose 0.08 uM) | Dose.FC.CTG (ENR+CD organoids; primary screen, dose 0.40 uM) | Dose.FC.CTG (ENR+CD organoids; primary screen, dose 2.00 uM) | Dose.FC.CTG (ENR+CD organoids; primary screen, dose 10.00 uM) | Dose.FC.LYZ.S ([1]; dose 0.08 uM) | Dose.FC.LYZ.S ([1]; dose 0.40 uM) | Dose.FC.LYZ.S ([1]; dose 2.00 uM) | Dose.FC.LYZ.S ([1]; dose 10.00 uM) | Dose.FC.LYZ.NS ([2]; primary screen, dose 0.08 uM) | Dose.FC.LYZ.NS ([2]; primary screen, dose 0.40 uM) | Dose.FC.LYZ.NS ([2]; primary screen, dose 2.00 uM) | Dose.FC.LYZ.NS ([2]; primary screen, dose 10.00 uM) | Z.CTG (standard z score) (ENR+CD organoids; primary screen, dose 0.08 uM) | Z.CTG (standard z score) (ENR+CD organoids; primary screen, dose 0.40 uM) | Z.CTG (standard z score) (ENR+CD organoids; primary screen, dose 2.00 uM) | Z.CTG (standard z score) (ENR+CD organoids; primary screen, dose 10.00 uM) | Z.LYZ.NS (standard z score) ([2]; primary screen, dose 0.08 uM) | Z.LYZ.NS (standard z score) ([2]; primary screen, dose 0.40 uM) | Z.LYZ.NS (standard z score) ([2]; primary screen, dose 2.00 uM) | Z.LYZ.NS (standard z score) ([2]; primary screen, dose 10.00 uM) | further results |
| --- | --- | --- | --- | --- | --- | --- | --- | --- | --- | --- | --- | --- | --- | --- | --- | --- | --- | --- | --- | --- | --- |
| C[C@H](CS)C(=O)N1CCC[C@H]1C(=O)O [Captopril] | −0.056 log2 fold change | 0.108 log2 fold change | 0.123 log2 fold change | 0.107 log2 fold change | 0.049 log2 fold change | 0.109 log2 fold change | 0.051 log2 fold change | 0.077 log2 fold change | 0.059 log2 fold change | 0.035 log2 fold change | 0.033 log2 fold change | 0.153 log2 fold change |  |  |  |  |  |  |  |  | Z.LYZ.NS [2, 3]: 0.511; Z.LYZ.NS [2, 4]: 0.307; Z.LYZ.NS [2, 5]: 0.285; Z.LYZ.NS [2, 6]: 1.330 |
| CCc1c(C(=O)NCCc2ccc(N3CCCCC3)cc2)[nH]c2ccc(Cl)cc12 [Org 27569] |  |  |  |  |  |  |  |  |  |  |  |  |  |  |  |  |  |  |  |  | Z.CTG (ENR+CD organoids; [7]): 0.663; Z.CTG (ENR+CD organoids; [8]): 0.173; Z.CTG (ENR+CD organoids; [9]): 0.865; Z.CTG (ENR+CD organoids; [10]): 0.646; Dose.FC.CTG (ENR+CD organoids; [11]): 0.278 log2 fold change; Dose.FC.CTG (ENR+CD organoids; [12]): 0.072 log2 fold change; Dose.FC.CTG (ENR+CD organoids; [13]): 0.362 log2 fold change; Dose.FC.CTG (ENR+CD organoids; [14]): 0.270 log2 fold change; Dose.FC.LYZ.S ([1]; dose 0.08 uM, FC vs plate median): 0.174 log2 fold change; Dose.FC.LYZ.S ([1]; dose 0.40 uM, FC vs plate median): 0.032 log2 fold change; Dose.FC.LYZ.S ([1]; dose 2.00 uM, FC vs plate median): 0.059 log2 fold change; Dose.FC.LYZ.S ([1]; dose 10.00 uM, FC vs plate median): 0.001 log2 fold change; Z.LYZ.NS [2, 7]: 1.060; Z.LYZ.NS [2, 8]: 0.445; Z.LYZ.NS [2, 9]: 0.683; Z.LYZ.NS [2, 10]: 0.248; Dose.FC.LYZ.NS [2, 11]: 0.122 log2 fold change; Dose.FC.LYZ.NS [2, 12]: 0.051 log2 fold change; Dose.FC.LYZ.NS [2, 13]: 0.078 log2 fold change; Dose.FC.LYZ.NS [2, 14]: 0.029 log2 fold change |
| C[C@H]1COC2(CCN(c3nc(=O)c4cc(C(F)(F)F)cc([N+](=O)[O-])c4s3)CC2)O1 (racemic) [BTZ043 Racemate] | 0.497 log2 fold change | 0.545 log2 fold change | 0.063 log2 fold change | 0.327 log2 fold change | 0.199 log2 fold change | 0.252 log2 fold change | 0.038 log2 fold change | 0.070 log2 fold change | 0.131 log2 fold change | 0.186 log2 fold change | 0.089 log2 fold change | 0.100 log2 fold change | 1.187 | 1.303 | 0.150 | 0.782 | 1.138 | 1.619 | 0.776 | 0.870 |  |
| CN(C)C(=O)Nc1cccc(-c2ccc(N(C)C)cc2)c1 [Atglistatin] | 0.057 log2 fold change | 0.004 log2 fold change | −0.045 log2 fold change | −0.431 log2 fold change | 0.028 log2 fold change | −0.035 log2 fold change | 0.026 log2 fold change | 0.012 log2 fold change | 0.069 log2 fold change | 0.135 log2 fold change | 0.070 log2 fold change | −0.016 log2 fold change | 0.137 | 0.009 | −0.108 | −1.031 | 0.604 | 1.176 | 0.613 | −0.142 |  |
| O=S(=O)(c1ccccc1)N(CC(F)(F)F)c1ccc(C(O)(C(F)(F)F)C(F)(F)F)cc1 [T0901317] |  |  |  |  |  |  |  |  |  |  |  |  |  |  |  |  |  |  |  |  | Dose.FC.CTG (ENR+CD organoids; [15]): 0.047 log2 fold change; Dose.FC.CTG (ENR+CD organoids; [16]): 0.178 log2 fold change; Dose.FC.CTG (ENR+CD organoids; [17]): 0.096 log2 fold change; Dose.FC.CTG (ENR+CD organoids; [18]): 0.114 log2 fold change; Dose.FC.LYZ.S ([1]; dose 0.08 uM, FC relative to plate median): 0.111 log2 fold change; Dose.FC.LYZ.S ([1]; dose 0.40 uM, FC relative to plate median): 0.077 log2 fold change; Dose.FC.LYZ.S ([1]; dose 2.00 uM, FC relative to plate median): 0.070 log2 fold change; Dose.FC.LYZ.S ([1]; dose 10.00 uM, FC relative to plate median): −0.034 log2 fold change; Dose.FC.LYZ.NS [2, 15]: 0.086 log2 fold change; Z.LYZ.NS [2, 7]: 0.748; Dose.FC.LYZ.NS [2, 16]: 0.042 log2 fold change; Z.LYZ.NS [2, 8]: 0.369; Dose.FC.LYZ.NS [2, 17]: 0.074 log2 fold change; Z.LYZ.NS [2, 9]: 0.644; Dose.FC.LYZ.NS [2, 18]: −0.015 log2 fold change; Z.LYZ.NS [2, 10]: −0.130 |
| Cc1cccc(CC(=O)N2CCc3c2ccc(-c2cn(C)c4ncnc(N)c24)c3F)n1 [GSK2656157] |  |  |  |  |  |  |  |  |  |  |  |  | 0.162 | 0.274 | 0.197 | 0.284 | −0.267 | −0.396 | −0.291 | −0.102 | Dose.FC.CTG (log2 fold change) (ENR+CD organoids; primary screen, dose 0.08 uM): 0.068; Dose.FC.CTG (log2 fold change) (ENR+CD organoids; primary screen, dose 0.40 uM): 0.115; Dose.FC.CTG (log2 fold change) (ENR+CD organoids; primary screen, dose 2.00 uM): 0.083; Dose.FC.CTG (log2 fold change) (ENR+CD organoids; primary screen, dose 10.00 uM): 0.119; Dose.FC.LYZ.S (log2 fold change) ([1]; dose 0.08 uM): −0.008; Dose.FC.LYZ.S (log2 fold change) ([1]; dose 0.40 uM): 0.060; Dose.FC.LYZ.S (log2 fold change) ([1]; dose 2.00 uM): −0.020; Dose.FC.LYZ.S (log2 fold change) ([1]; dose 10.00 uM): 0.090; Dose.FC.LYZ.NS (log2 fold change) ([2]; primary screen, dose 0.08 uM): −0.031; Dose.FC.LYZ.NS (log2 fold change) ([2]; primary screen, dose 0.40 uM): −0.045; Dose.FC.LYZ.NS (log2 fold change) ([2]; primary screen, dose 2.00 uM): −0.033; Dose.FC.LYZ.NS (log2 fold change) ([2]; primary screen, dose 10.00 uM): −0.012 |
| CN(C)C(=O)[C@H](O)[C@H](Cc1ccccc1)NC(=O)c1cc2cc(Cl)ccc2[nH]1 [CP-91149] | 0.031 log2 fold change | −0.023 log2 fold change | −0.098 log2 fold change | −0.100 log2 fold change | 0.186 log2 fold change | 0.055 log2 fold change | −0.121 log2 fold change | −0.097 log2 fold change | 0.177 log2 fold change | −0.033 log2 fold change | 0.028 log2 fold change | −0.057 log2 fold change |  |  |  |  |  |  |  |  | Z.CTG (ENR+CD organoids; [3]): 0.073; Z.CTG (ENR+CD organoids; [4]): −0.056; Z.CTG (ENR+CD organoids; [5]): −0.234; Z.CTG (ENR+CD organoids; [6]): −0.239; Z.LYZ.NS [2, 3]: 1.538; Z.LYZ.NS [2, 4]: −0.289; Z.LYZ.NS [2, 5]: 0.245; Z.LYZ.NS [2, 6]: −0.498 |
| Cc1ccc(C(=O)N(CCCN)[C@@H](c2nc3cc(Cl)ccc3c(=O)n2Cc2ccccc2)C(C)C)cc1 [Ispinesib (SB-715992)] |  |  |  |  |  |  |  |  |  |  |  |  | −0.772 | −1.238 | −1.220 | −1.704 | −1.931 | −1.663 | −1.709 | −1.752 | Dose.FC.CTG (log2 fold change) (ENR+CD organoids; primary screen, dose 0.08 uM): −0.323; Dose.FC.CTG (log2 fold change) (ENR+CD organoids; primary screen, dose 0.40 uM): −0.518; Dose.FC.CTG (log2 fold change) (ENR+CD organoids; primary screen, dose 2.00 uM): −0.511; Dose.FC.CTG (log2 fold change) (ENR+CD organoids; primary screen, dose 10.00 uM): −0.713; Dose.FC.LYZ.S (log2 fold change) ([1]; dose 0.08 uM): −0.271; Dose.FC.LYZ.S (log2 fold change) ([1]; dose 0.40 uM): −0.296; Dose.FC.LYZ.S (log2 fold change) ([1]; dose 2.00 uM): −0.287; Dose.FC.LYZ.S (log2 fold change) ([1]; dose 10.00 uM): −0.286; Dose.FC.LYZ.NS (log2 fold change) ([2]; primary screen, dose 0.08 uM): −0.222; Dose.FC.LYZ.NS (log2 fold change) ([2]; primary screen, dose 0.40 uM): −0.191; Dose.FC.LYZ.NS (log2 fold change) ([2]; primary screen, dose 2.00 uM): −0.196; Dose.FC.LYZ.NS (log2 fold change) ([2]; primary screen, dose 10.00 uM): −0.201 |
